As a reminder, the IC50 is the point on the concentration scale where inhibition reaches its midpoint.

Chain of Mitogen-activated protein kinase kinase kinase kinase 1 (Q92918 whole entry, the tested form may be a part): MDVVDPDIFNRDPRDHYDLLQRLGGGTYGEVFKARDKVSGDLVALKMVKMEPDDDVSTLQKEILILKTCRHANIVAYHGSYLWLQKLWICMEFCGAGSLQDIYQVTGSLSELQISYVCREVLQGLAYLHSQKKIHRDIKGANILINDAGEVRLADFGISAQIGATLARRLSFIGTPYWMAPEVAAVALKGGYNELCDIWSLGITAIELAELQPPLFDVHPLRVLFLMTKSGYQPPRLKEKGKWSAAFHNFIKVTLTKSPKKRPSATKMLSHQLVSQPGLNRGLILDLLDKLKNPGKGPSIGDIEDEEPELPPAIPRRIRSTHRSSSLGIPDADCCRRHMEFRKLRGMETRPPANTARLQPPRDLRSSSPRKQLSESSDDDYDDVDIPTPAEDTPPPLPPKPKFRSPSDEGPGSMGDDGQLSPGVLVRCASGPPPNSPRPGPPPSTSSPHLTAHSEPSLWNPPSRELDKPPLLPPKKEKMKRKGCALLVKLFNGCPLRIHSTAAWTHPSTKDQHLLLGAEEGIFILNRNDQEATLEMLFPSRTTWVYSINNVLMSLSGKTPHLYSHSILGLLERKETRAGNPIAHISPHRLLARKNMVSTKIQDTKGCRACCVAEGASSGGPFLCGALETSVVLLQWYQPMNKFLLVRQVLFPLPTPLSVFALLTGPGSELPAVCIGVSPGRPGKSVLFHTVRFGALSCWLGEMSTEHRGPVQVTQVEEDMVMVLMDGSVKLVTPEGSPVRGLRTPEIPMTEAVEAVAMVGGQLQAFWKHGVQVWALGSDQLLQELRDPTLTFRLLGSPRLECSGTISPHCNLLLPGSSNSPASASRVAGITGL

This assay addresses Mitogen-activated protein kinase kinase kinase kinase 1 (Homo sapiens, UniProt Q92918). Kind of assay: HPK1 Kinase Assay (Biochemical Assay). As for the experimental part:
A recombinant fusion protein consisting of full-length human HPK1 (MAP4K1) with an N-terminal Glutatione S-transferase (GST) tag was produced in insect cells Sf21 using the baculovirus expression system. GST-HPK1 protein was purified from cell lysates by glutathione Sepharose affinity chromatography. The assay is run in three continuous steps: 1) the HPK1 enzymatic kinase reaction, 2) an ATP depletion, and 3) the ADP detection, the steps 2 and 3 are performed with ADP-Glo Kinase Assay kit from Promega (V9101). […] After 120 minutes, the reaction was stopped by adding 5 μL of ADP-Glo reagent (Promega, V9101) and incubating for 40 min. in the dark at 23 C. To determine the level of ADP, 10 μl ADP-Glo Detection solution was added and incubated for 1 hour at 23 C. in the dark.
In turn, `Cc1c(N2CCc3cnc(Nc4cc5n(n4)CC(=O)N(C(C)C)CC5)nc3C2)cnc2c1NCCO2` [US20240025922, Example 89] returned an IC50 greater than 1000 nM.
The molecule `COc1cccc(F)c1N1CCc2cnc(Nc3cnc4c(c3)CN(C)CC4)nc2C1` [US20240025922, Example 120] had an IC50 of less than 100 nM.
Regarding `Cc1cc(Nc2cc3c(cn2)CCN(c2cnc4c(c2Cl)NCCO4)C3)nn1CC(=O)N(C)C` [US20240025922, Example 131], the IC50 was greater than 1000 nM.

Values taken from BindingDB's records for patent US20240025922 (Merck Patent, 2024).
